US8012944B2, “Method for treating cancer using IAP antisense oligomer and chemotherapeutic agent” (Pharmascience Inc., priority 2003, dated 2011)
Oligonucleotides are written 5' to 3', each unit as a sugar letter and its base; * is a phosphorothioate linkage, no mark a phosphodiester; rarer units and linkages stand in square brackets, end groups in braces. Plain capitals give the bases only. d = 2'-deoxy (DNA)

Tests used:
T24 cells = experiment: Visual inspection of T24 cell morphology after transfection; assay type: cell-based, human; conditions: twenty hours after transfection
Text: The occurrence of cytoxicity induced by oligonucleotide E4 was examined by visually inspecting T24 cells that were left untreated, mock transfected, or transfected with E4, E4 scrambled, E4 reverse polarity, or E4 mismatched oligonucleotides. Twenty hours after transfection, the cells were examined for morphology (FIG. 5D).

XIAP RNA = XIAP RNA knock-down in T24 cells (TaqMan quantitative PCR); assay type: cell-based, human
Outline: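 T24 bladder carcinoma cells (1.5×10^4/well) cultured 24 h in antibiotic-free McCoy's medium, then transfected with antisense oligonucleotides using Lipofectamine-based conditions optimized on survivin knock-down. XIAP mRNA measured by TaqMan RT-qPCR, quantified relative to GAPDH by the comparative Ct method.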

XIAP mRNA = XIAP mRNA knock-down in H460 cells (real-time RT-PCR / TaqMan); assay type: cell-based, human
Outline: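 NCI-H460 cells transfected with phosphorothioate antisense oligonucleotides via Lipofectamine 2000; RNA isolated after 6 h treatment. XIAP mRNA quantified by one-step TaqMan real-time RT-PCR, comparative Ct (threshold 30× baseline SD), normalized to GAPDH and expressed relative to untreated control cells.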

XIAP protein [1] = experiment: XIAP protein knock-down in T24 cells (XIAP ELISA, relative to total protein); assay type: cell-based, human
Outline: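 T24 bladder carcinoma cells transfected with antisense oligonucleotides using Lipofectamine plus in serum-free, antibiotic-free McCoy's medium for three hours, then serum added. XIAP protein measured by colorimetric sandwich ELISA on day 4, normalized to total cellular protein and compared with mock transfection.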

[2] = tested on: subcutaneous H460 human non-small-cell lung tumor xenografts; experiment: Systemic (i.p.) oligonucleotides with or without vinorelbine in H460 xenografts; assay type: in vivo, SCID-RAG2 mice; conditions: for antitumor efficacy on H460 xenografts (in words): systemic, oligonucleotide 15 mg/kg i.p., VNB 5 or 10 mg/kg i.v.
Procedure: (§1) Initial systemic PS-oligonucleotide studies were designed without any chemotherapeutic agents. SCID-RAG2 mice were inoculated with H460 human lung carcinoma cells (s.c. shoulder injection of 10^6 cells) and treatments with G4 and F3 AS PS-oligonucleotides, as well as a scrambled control, were initiated three days after tumor inoculation. Nucleobase oligomer injections were administered i.p. at 12.5 mg/kg three times a week for three weeks. At the end of the treatment period, mean tumor sizes in the groups treated with either G4 or F3 AS oligonucleotides were ˜50% smaller than in the group treated with a scrambled control oligonucleotides (FIG. 15). The same treatment protocol was tested on female SCID-RAG2 mice inoculated orthotopically with MDA-MB-435/LCC6 human breast carcinoma cells. Two weeks after the last treatment (day 35) tumor volumes of mice treated with F3, C5 or G4 AS oligonucleotides were 70%, 60%, and 45%, respectively, smaller than vehicle controls (FIG. 16).
We conducted additional examination of the antitumor effects of G4 AS oligonucleotides in SCID-RAG2 mice bearing xenografts of H460 human non-small-cell lung tumors implanted subcutaneously. Saline-treated control tumors grew reproducibly to a size of 0.75 cm^3 within approximately 24 days (FIG. 17). Oligonucleotide treatments were initiated three days after tumor cell inoculation. G4 AS oligonucleotides (5 to 15 mg/kg) were administered using a treatment schedule of i.p. injections given once a day on days 3-7, 10-14, and 17-21. The treatment with 5 or 15 mg/kg G4 AS oligonucleotides greatly delayed tumor growth: on day 24 mean tumor sizes were 0.75, 0.45 and 0.29 cm^3 in control, 5 and 15 mg/kg treated groups, respectively (FIG. 18A). There was a dose-dependent inhibition of tumor growth. […] A dose of 15 mg/kg was selected for the future combination treatment regimens with anticancer drugs.
The human non-small cell lung cancer cell line (large cell type) NCI-H460 (H460) was obtained from ATCC and maintained in RPMI 1640 supplemented with 10% FCS at 37° C. in a humidified atmosphere containing 5% CO2. Cells were used in exponential growth phase, up to a maximum of 25 in vitro passages. Male SCID-RAG2 mice (7-9 weeks old, 23-26 g) were obtained from British Columbia Cancer Agency Joint Animal Facility breeding colony and kept in aseptic environments. A tumor model of NCI-H460 cells in SCID-RAG2 mice was established by subcutaneous implantation of 1×10^6 NCI-H460 cells on the back of mice.
(§2) Efficacy experiments were conducted in male RAG2 immunodeficient mice bearing NCI-H460 tumours or female RAG2 mice bearing LCC6 tumors. Treatments were commenced on day 3 after tumor inoculation. Saline (controls), G4 AS oligonucleotides (5 or 15 mg/kg), or G4 SC oligonucleotides (5 or 15 mg/kg) were administered i.p. daily for five doses a week over a three week regimen. Vinorelbine (VNB, 5 or 10 mg/kg) was administered i.v. via the tail vein, either alone or in combination with oligonucleotides, at day 3, 7, 11 and 17 after tumor inoculation. When oligonucleotides were administered in combination with VNB, the drug treatment was performed four hours after ODN treatment.
(§3) Mice were observed daily. Body weight measurements and signs of stress (e.g., lethargy, ruffled coat, ataxia) were used to detect possible toxicities. Animals with ulcerated tumor, or tumor volumes of 1 cm^3 or greater were killed. Digital caliper measurements of tumors were converted into mean tumor size (cm^3) using the formula: ½[length (cm)]×[width (cm)]^2. An average tumor size per mouse was used to calculate the group mean tumor size±SE (n=6 mice) from at least two independent experiments per group.

XIAP protein [3] = experiment: XIAP protein knock-down in H460 cells (western blot, densitometry); assay type: cell-based, human
Procedure: FIGS. 3 and 4 are graphs showing the effects of 4×4 mixed backbone (MBO) FG8 or E12 oligonucleotides in amounts of 31 nM (FIG. 3) or 63 nM (FIG. 4). H460 lung carcinoma cells were transfected for 18 hours on one, two, or three consecutive days using 125 nM MBOs and Lipofectamine 2000. Samples for western analysis were harvested at the indicated time. Scanning densitometry was performed, and XIAP protein levels were normalized to GAPDH and compared to a mock control set to 100%. The indicated percentages express % XIAP protein knockdown versus specific scrambled controls.
(§4) One day prior to transfection, H460 cells were plated in 6- or 96-well tissue culture plates. Phosphorothioate antisense oligonucleotides were delivered into cells with Lipofectamine 2000 (Life Technologies) in the form of liposome-oligonucleotide complexes. Following a 4.5 or 6 h transfection, the transfection medium was replaced with RPMI medium containing 10% FBS, and the cells incubated for another 24 or 48 h.
(§5) The cells or tumor tissue samples were lysed with ice-cold lysis buffer (50 mM Tris, 150 mM NaCl, 2.5 mM EDTA, 0.1% SDS, 0.5% sodium deoxycholate, 1% NP-40, 0.02% sodium azide) containing protease inhibitors (Complete-Mini protease inhibitor tablets; Boehringer Mannheim GmBH, Mannheim, Germany). After incubation for 30 min on ice, samples were centrifuged at 10,000 rpm for 15 min, and stored at −20° C. Protein content in the lysed extracts was determined using a detergent-compatible Bio-Rad assay (Bio-Rad Labs, Hercules, Calif.). Equal amounts of protein (40 μg/lane) were separated on 12% SDS-polyacrylamide gels or 4-15% gradient SDS-polyacrylamide pre-made gels (Bio-Rad) and transferred to nitrocellulose membranes. Primary antibodies against XIAP, Bcl-2 (DAKO, Glostrup, Denmark), Bax (Sigma, St. Louis, Mo.), β-actin (Sigma), caspase-3 (BD PharMingen, San Diego, Calif.), and PARP (BD PharMingen) were used. The secondary antibody was the appropriate horseradish-conjugated anti-mouse or anti-rabbit IgG (Promega, Madison, Wis.). Proteins were detected by enhanced chemiluminescence (ECL; Amersham Pharmacia Biotech, Buckinghamshire, England) and visualized after exposure to Kodak autoradiography film. Scanning densitometry (Molecular Dynamics, Sunnyvale, Calif.) was performed to quantify band intensities by volume/area integration. The amount of XIAP, caspase-3, Bcl-2 and Bax in cells was normalized to their respective lane β-actin levels, upon stripping and reprobing.

Bcl-2 and Bax = experiment: Bcl-2:Bax ratio in H460 cells (western blot); assay type: cell-based, human; conditions: 1.2 μM
Procedure: FIGS. 11A and 11B are schematic illustrations showing XIAP oligonucleotide-mediated effects on caspase activation. The effect of XIAP oligonucleotides F3, G4, or C5, or their respective RP and SC ODN controls at 1.2 μM on the expression of pro-caspase-3, PARP (both full length (116 kDa) and processed (85 kDa)) (FIG. 10A) and Bcl-2 and Bax protein levels (FIG. 10B) in transfected H460 cells compared to control is shown. Proteins expression was analyzed by western blotting. Bcl-2 and Bax protein levels were normalized to cellular actin levels and quantified by densitometry. […]
The cells or tumor tissue samples were lysed with ice-cold lysis buffer (50 mM Tris, 150 mM NaCl, 2.5 mM EDTA, 0.1% SDS, 0.5% sodium deoxycholate, 1% NP-40, 0.02% sodium azide) containing protease inhibitors (Complete-Mini protease inhibitor tablets; Boehringer Mannheim GmBH, Mannheim, Germany). […] Protein content in the lysed extracts was determined using a detergent-compatible Bio-Rad assay (Bio-Rad Labs, Hercules, Calif.). […] Proteins were detected by enhanced chemiluminescence (ECL; Amersham Pharmacia Biotech, Buckinghamshire, England) and visualized after exposure to Kodak autoradiography film. Scanning densitometry (Molecular Dynamics, Sunnyvale, Calif.) was performed to quantify band intensities by volume/area integration. […]

[4] = tested on: MDA-MB-435/LCC6 human breast carcinoma xenografts; experiment: Systemic (i.p.) PS-oligonucleotides in LCC6 breast carcinoma xenografts; assay type: in vivo, female SCID-RAG2 mice; conditions: 12.5 mg/kg i.p.; day 35, two weeks after the last treatment
Procedure: as §1, §2

pro-caspase-3, PARP = experiment: Pro-caspase-3 and PARP protein in H460 cells (western blot); assay type: cell-based, human; conditions: 1.2 μM
Procedure: as §4, §5

H460 cells [5] = experiment: Nuclear morphology (DAPI staining); assay type: cell-based, human; conditions: 1.2 μM
Procedure: Cells were treated with liposome-oligonucleotde complexes for 4.5 h, and incubated for another 48 h at 37° C. in the medium without transfection reagent or oligonucleotides. Cells were harvested and stained with 0.10 μg/ml DAP1 (4′, 6-diamidino-2-2-phenylindole) for 30 min at room temperature. Cells were placed on a glass slide, cytospun, and viewed with a Leica microscope and 40× objective lens under UV fluorescent illumination. Digital images were captured using Imagedatabase V. 4.01 Software (Leica, Germany).

H460 cells [6] = experiment: H460 cell growth, viability or death (MTT assay); assay type: cell-based, human; conditions: 1.2 μM
Procedure: Growth inhibition of […] cells was determined by the colorimetric MTT cell viability/proliferation assay. In brief, cells were treated with liposome-oligonucleotide complexes for 4.5 h, then incubated for another 48 h at 37° C. in medium without transfection reagent or oligonucleotides in the presence or absence of anticancer drugs. MTT (25 μg/well) was added to each well, and the plates incubated for 3 h at 37° C. Following the incubation step, the colored formazan product was dissolved by the addition of 200 μl DMSO. Plates were read using the microtiter plate reader (Dynex Technologies Inc., Chantilly, Va.) at a wavelength of 570 nm. The percentage of surviving cells in wells treated with oligonucleotides was normalized to untreated controls. All assays were performed in triplicate.

H460 cells [7] = experiment: Apoptotic flow cytometric assay (PI staining, hypo-diploid DNA content); assay type: cell-based, human; conditions: 1.2 μM, untreated control 16.6%
Procedure: Cells were treated with liposome-oligonucleotide complexes for 4.5 h, and incubated for another 48 h in the medium without transfection reagent at 37° C. Following incubation, cells were harvested, washed twice with sample buffer (0.5% glucose in PBS without Ca^++ and Mg^++), and fixed in cold 70% ethanol at 4° C. for at least 18 hrs. Samples were centrifuged at 3000 rpm for 10 min, then resuspended in sample buffer containing 50 μg/ml propidium iodide (PI) and 400 U/ml RNase A. Samples were incubated for 30 min at room temperature and 30 min on ice, followed by flow cytometry analysis. EXPO Software (Applied Cytometry Systems, Sacramento, Calif.) was used to generate histograms, which were used to determine the cell cycle phase distribution after debris exclusion. The Sub G1/G0 cell fraction was considered as representative for apoptotic cells.

[8] = mouse, in vivo
Text: as §3

CGCACGGTATCTCCTTCAC (antisense; chemistry not fully specified) [Code E4]
signs of toxicity (cell morphology) (T24 cells): showed signs of toxicity
XIAP down-regulation T24 RNA (XIAP RNA): 47%
XIAP down-regulation H460 RNA (XIAP mRNA): 51%
XIAP down-regulation T24 protein (XIAP protein [1]): 34%
XIAP protein levels relative to total protein, compared to mock transfection (in words) (XIAP protein [1]; first screen of the library): some decrease

ATCTTCTCTTGAAAATAGG (DNA, all phosphorothioate, methylation of C not given here) [F3 AS]
mean tumor size smaller than scrambled control group ([2]; PS-oligonucleotides 12.5 mg/kg i.p. three times a week for three weeks, end of treatment): ~50%
reduction of XIAP protein level (XIAP protein [3]; 1.2 μM, 24 h after the end of transfection): 50%
ratio of Bcl-2:Bax (Bcl-2 and Bax): unchanged
tumor volumes smaller than vehicle controls [4]: 70%
reduction of pro-caspase-3 protein levels compared to untreated control (pro-caspase-3, PARP): 40%

GGCTCTTTGCCCACTGAAT (dG*dG*dC*dT*dC*dT*dT*dT*dG*dC*dC*dC*dA*dC*dT*dG*dA*dA*dT) [G4 SC, reference compound]
nuclear morphological changes characteristic of apoptosis (H460 cells [5]): Few cells showed these morphological changes
tumors reduced in size, % of control tumors ([2]; 15 mg/kg, day 21 or 24): 24%
antitumor efficacy on H460 xenografts (in words) [2]: no therapeutic activity
effect on XIAP protein levels (in words) (XIAP protein [3]): little XIAP loss
cell death (H460 cells [6]; H460 cells): less than 10%
reduction of H460 cell growth relative to untreated control (H460 cells [6]; MTT, 48 hours after transfection): less than 10%
hypo-diploid DNA content of cells (H460 cells [7]): 22.1%
effect on caspase-3 or PARP protein expression (pro-caspase-3, PARP): did not have any effect

CCC1=C[C@@H]2CN(C1)Cc1c([nH]c3ccccc13)[C@@](C(=O)OC)(c1cc3c(cc1OC)N(C)[C@H]1[C@@](O)(C(=O)OC)[C@H](OC(C)=O)[C@]4(CC)C=CCN5CC[C@]31[C@@H]54)C2 [VNB, vinorelbine, reference compound]
average tumor size ([2]; day 29, VNB 5 mg/kg, oligonucleotides 15 mg/kg): 0.59±0.04 cm^3
antitumor efficacy on H460 xenografts (in words) [2]: significant tumor growth suppression
signs of toxicity in mice [8]: without showing significant signs of undesirable toxicity
